# In US20130116241A1, “NOVEL INHIBITOR COMPOUNDS OF PHOSPHODIESTERASE TYPE 10A” (AbbVie Inc., priority 2011, published 2013):
# Target: human PDE10A (UniProt Q9Y233)
# Test: Measurement of PDE activity (recombinant enzyme, HTRF cAMP kit)
# Type: biochemical
# Settings: Table 1, substrate 20 nM for PDE10, 60 minutes at 29 C, read-out: IC50
# Experimental: The recombinant PDE proteins are used in in vitro enzymatic reaction for measurement of PDE activity. These recombinant proteins, including PDE10A (human, rat and mouse PDE10) and isoforms of PDEs 1, 3, 4, and 5, were purchased from commercial vendor BPS Bioscience. The enzymatic activity of PDEs was determined by cAMP measurement kit from CisBio (IBA) using HTRF technology.
# The PDE enzymatic reaction was carried out in assay buffer (20 mM Tris-HCl pH7.5, 10 mM MgCl2, 0.1% bovine serum albumin) containing enzyme and substrate. The PDE enzymes concentration ranged from 10 pM-250 pM, depending on each enzyme's specific activity. The substrate cyclic nucleotide (cAMP or cGMP) concentration used in the assay was 20 nM for PDE10, and 100 nM for other PDEs. The inhibitory effect of compound was determined by incubating various concentration of inhibitor in the enzymatic assay. Typically, compound was serial diluted in DMSO then further diluted in assay buffer. Next, the compound at varying concentration was mixed with PDE enzyme. The reaction was initiated by addition of cyclic nucleotide substrate, and incubated for 60 minutes at 29 C. The reaction was stopped by addition of lysis buffer from assay kit. The cAMP-d2 and anti-cAMP cryptate in the lysis buffer detected the level of cAMP left from the PDE hydrolysis reaction. The PDE activity is reversely correlated with the amount of cAMP left in the reaction and can be converted to the percent activity of an uninhibited control (100%). Thus, IC50 value of inhibitor can be obtained by plotting inhibitor concentration against PDE activity at that concentration.
# human PDE10A, sequence (Q9Y233 290-1055 limits assumed): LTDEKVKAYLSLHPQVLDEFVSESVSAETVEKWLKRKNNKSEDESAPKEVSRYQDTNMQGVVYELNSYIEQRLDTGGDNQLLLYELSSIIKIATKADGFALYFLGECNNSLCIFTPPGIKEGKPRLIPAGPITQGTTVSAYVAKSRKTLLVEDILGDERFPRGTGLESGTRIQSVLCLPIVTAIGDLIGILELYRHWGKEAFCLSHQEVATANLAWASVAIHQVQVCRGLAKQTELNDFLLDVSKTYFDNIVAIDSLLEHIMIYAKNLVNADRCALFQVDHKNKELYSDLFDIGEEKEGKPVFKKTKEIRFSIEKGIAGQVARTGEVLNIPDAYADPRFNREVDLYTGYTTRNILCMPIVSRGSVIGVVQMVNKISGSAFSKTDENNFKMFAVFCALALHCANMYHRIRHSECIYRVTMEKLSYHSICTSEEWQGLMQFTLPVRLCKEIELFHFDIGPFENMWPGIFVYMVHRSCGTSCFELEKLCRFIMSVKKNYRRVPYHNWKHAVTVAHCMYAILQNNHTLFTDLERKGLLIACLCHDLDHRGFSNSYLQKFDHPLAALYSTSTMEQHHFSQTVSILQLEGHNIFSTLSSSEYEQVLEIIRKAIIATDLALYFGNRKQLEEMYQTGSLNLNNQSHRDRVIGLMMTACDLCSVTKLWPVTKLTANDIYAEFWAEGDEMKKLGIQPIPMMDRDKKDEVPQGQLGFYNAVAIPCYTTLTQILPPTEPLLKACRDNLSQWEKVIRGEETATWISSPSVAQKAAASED
row,IC50,SMILES
1,200 to 500 nM,"O=c1c2c(-c3cccc4cnccc34)csc2cnn1CCc1ccc2ccccc2n1 [Example 44, 3-(isoquinolin-5-yl)-5-[2-(quinolin-2-yl)ethyl]thieno[2,3-d]pyridazin-4(5H)-one]"
2,100 to 200 nM,"O=c1c2c(-c3cccc4[nH]ccc34)csc2cnn1CCc1ccc2ccccc2n1 [Example 45, 3-(1H-indol-4-yl)-5-(2-quinolin-2-yl-ethyl)-5H-thieno[2,3-d]pyridazin-4-one]"
3,< 100 nM,"O=c1c2c(-c3ccc4c(c3)CCO4)csc2cnn1CCc1ccc2ccccc2n1 [Example 46, 3-(2,3-dihydrobenzofuran-5-yl)-5-(2-quinolin-2-yl-ethyl)-5H-thieno[2,3-d]pyridazin-4-one]"
4,100 to 200 nM,"O=c1c2c(-c3cccc4ncccc34)csc2cnn1CCc1ccc2ccccc2n1 [Example 47, 3-(quinolin-5-yl)-5-[2-(quinolin-2-yl)ethyl]thieno[2,3-d]pyridazin-4(5H)-one]"
5,< 100 nM,"Cc1noc(C)c1-c1csc2cnn(CCc3ccc4ccccc4n3)c(=O)c12 [Example 48, 3-(3,5-dimethyl-1,2-oxazol-4-yl)-5-[2-(quinolin-2-yl)ethyl]thieno[2,3-d]pyridazin-4(5H)-one]"
6,100 to 200 nM,"COc1ccc(-c2csc3cnn(CCc4ccc5ccccc5n4)c(=O)c23)cn1 [Example 49, 3-(6-methoxypyridin-3-yl)-5-[2-(quinolin-2-yl)ethyl]thieno[2,3-d]pyridazin-4(5H)-one]"
7,200 to 500 nM,"O=c1c2c(-c3ccc4c(c3)OCCO4)csc2cnn1CCc1ccc2ccccc2n1 [Example 50, 3-(2,3-dihydro-1,4-benzodioxin-6-yl)-5-[2-(quinolin-2-yl)ethyl]thieno[2,3-d]pyridazin-4(5H)-one]"
8,< 100 nM,"Cc1cc(-c2csc3cnn(CCc4ccc5ccccc5n4)c(=O)c23)ccn1 [Example 51, 3-(2-methylpyridin-4-yl)-5-[2-(quinolin-2-yl)ethyl]thieno[2,3-d]pyridazin-4(5H)-one]"
9,100 to 200 nM,"COc1cncc(-c2csc3cnn(CCc4ccc5ccccc5n4)c(=O)c23)c1 [Example 52, 3-(5-methoxypyridin-3-yl)-5-[2-(quinolin-2-yl)ethyl]thieno[2,3-d]pyridazin-4(5H)-one]"
10,100 to 200 nM,"O=c1c2c(-c3ccc4c(c3)OCO4)csc2cnn1CCc1ccc2ccccc2n1 [Example 54, 3-(1,3-benzodioxol-5-yl)-5-[2-(quinolin-2-yl)ethyl]thieno[2,3-d]pyridazin-4(5H)-one]"
11,< 100 nM,"O=c1c2c(-c3ccc4ncccc4c3)csc2cnn1CCc1ccc2ccccc2n1 [Example 55, 3-(quinolin-6-yl)-5-[2-(quinolin-2-yl)ethyl]thieno[2,3-d]pyridazin-4(5H)-one]"
12,< 100 nM,"Cn1cc(-c2csc3cnn(CCc4ccc5ccccc5n4)c(=O)c23)cn1 [Example 56, 3-(1-methyl-1H-pyrazol-4-yl)-5-[2-(quinolin-2-yl)ethyl]thieno[2,3-d]pyridazin-4(5H)-one]"
13,200 to 500 nM,"CC(C)Cn1cc(-c2csc3cnn(CCc4ccc5ccccc5n4)c(=O)c23)cn1 [Example 57, 3-[1-(2-methylpropyl)-1H-pyrazol-4-yl]-5-[2-(quinolin-2-yl)ethyl]thieno[2,3-d]pyridazin-4(5H)-one]"
14,< 100 nM,"COc1ncc(-c2csc3cnn(CCc4ccc5ccccc5n4)c(=O)c23)cn1 [Example 59, 3-(2-methoxypyrimidin-5-yl)-5-[2-(quinolin-2-yl)ethyl]thieno[2,3-d]pyridazin-4(5H)-one]"
15,200 to 500 nM,"O=c1c2c(-c3ccc(F)c(F)c3F)csc2cnn1CCc1ccc2ccccc2n1 [Example 60, 5-[2-(quinolin-2-yl)ethyl]-3-(2,3,4-trifluorophenyl)thieno[2,3-d]pyridazin-4(5H)-one]"
16,200 to 500 nM,"Cc1cc(F)ccc1-c1csc2cnn(CCc3ccc4ccccc4n3)c(=O)c12 [Example 62, 3-(4-fluoro-2-methylphenyl)-5-[2-(quinolin-2-yl)ethyl]thieno[2,3-d]pyridazin-4(5H)-one]"
17,200 to 500 nM,"O=c1c2c(-c3ccc(F)cc3Cl)csc2cnn1CCc1ccc2ccccc2n1 [Example 64, 3-(2-chloro-4-fluorophenyl)-5-[2-(quinolin-2-yl)ethyl]thieno[2,3-d]pyridazin-4(5H)-one]"
18,100 to 200 nM,"O=c1c2c(-c3ccc(F)cc3F)csc2cnn1CCc1ccc2ccccc2n1 [Example 67, 3-(2,4-difluorophenyl)-5-[2-(quinolin-2-yl)ethyl]thieno[2,3-d]pyridazin-4(5H)-one]"
19,100 to 200 nM,"O=c1c2c(-c3cccc(F)c3F)csc2cnn1CCc1ccc2ccccc2n1 [Example 70, 3-(2,3-difluorophenyl)-5-[2-(quinolin-2-yl)ethyl]thieno[2,3-d]pyridazin-4(5H)-one]"

row,IC50,SMILES
1,200 to 500 nM,"COc1ccc(-c2csc3cnn(CCc4ccc5ccccc5n4)c(=O)c23)cc1OC [Example 71, 3-(3,4-dimethoxyphenyl)-5-[2-(quinolin-2-yl)ethyl]thieno[2,3-d]pyridazin-4(5H)-one]"
2,100 to 200 nM,"O=c1c2c(-c3ccc(F)c(F)c3)csc2cnn1CCc1ccc2ccccc2n1 [Example 72, 3-(3,4-difluorophenyl)-5-[2-(quinolin-2-yl)ethyl]thieno[2,3-d]pyridazin-4(5H)-one]"
3,100 to 200 nM,"O=c1c2c(-c3cc(F)ccc3F)csc2cnn1CCc1ccc2ccccc2n1 [Example 76, 3-(2,5-difluorophenyl)-5-[2-(quinolin-2-yl)ethyl]thieno[2,3-d]pyridazin-4(5H)-one]"
4,200 to 500 nM,"COc1ccc(-c2csc3cnn(CCc4ccc5ccccc5n4)c(=O)c23)cc1F [Example 78, 3-(3-fluoro-4-methoxyphenyl)-5-[2-(quinolin-2-yl)ethyl]thieno[2,3-d]pyridazin-4(5H)-one]"
5,200 to 500 nM,"COc1cccc(-c2csc3cnn(CCc4ccc5ccccc5n4)c(=O)c23)c1F [Example 79, 3-(2-fluoro-3-methoxyphenyl)-5-[2-(quinolin-2-yl)ethyl]thieno[2,3-d]pyridazin-4(5H)-one]"
6,100 to 200 nM,"O=c1c2c(-c3cc(F)cc(F)c3)csc2cnn1CCc1ccc2ccccc2n1 [Example 80, 3-(3,5-difluorophenyl)-5-[2-(quinolin-2-yl)ethyl]thieno[2,3-d]pyridazin-4(5H)-one]"
7,100 to 200 nM,"O=c1c2c(-c3ccccc3)csc2cnn1CCc1ccc2ccccc2n1 [Example 85, 3-phenyl-5-[2-(quinolin-2-yl)ethyl]thieno[2,3-d]pyridazin-4(5H)-one]"
8,< 100 nM,"O=c1c2c(-c3ccc4[nH]ncc4c3)csc2cnn1CCc1ccc2ccccc2n1 [Example 87, 3-(1H-indazol-5-yl)-5-[2-(quinolin-2-yl)ethyl]thieno[2,3-d]pyridazin-4(5H)-one]"
9,< 100 nM,"Cn1nccc1-c1csc2cnn(CCc3ccc4ccccc4n3)c(=O)c12 [Example 88, 3-(1-methyl-1H-pyrazol-5-yl)-5-[2-(quinolin-2-yl)ethyl]thieno[2,3-d]pyridazin-4(5H)-one]"
10,200 to 500 nM,"Cc1ccc(-c2csc3cnn(CCc4ccc5ccccc5n4)c(=O)c23)c(F)c1 [Example 90, 3-(2-fluoro-4-methylphenyl)-5-[2-(quinolin-2-yl)ethyl]thieno[2,3-d]pyridazin-4(5H)-one]"
11,100 to 200 nM,"COc1ccc(F)c(-c2csc3cnn(CCc4ccc5ccccc5n4)c(=O)c23)c1 [Example 91, 3-(2-fluoro-5-methoxyphenyl)-5-[2-(quinolin-2-yl)ethyl]thieno[2,3-d]pyridazin-4(5H)-one]"
12,< 100 nM,"O=c1c2c(-c3ccncc3)csc2cnn1CCc1ccc2cc(F)ccc2n1 [Example 93, 5-[2-(6-Fluoroquinolin-2-yl)ethyl]-3-(pyridin-4-yl)thieno[2,3-d]pyridazin-4(5H)-one]"
13,< 100 nM,"O=c1c2c(-c3ccncc3)csc2cnn1CC(F)(F)c1ccc2ccccc2n1 [Example 94, 5-[2,2-Difluoro-2-(quinolin-2-yl)ethyl]-3-(pyridin-4-yl)thieno[2,3-d]pyridazin-4(5H)-one]"
14,< 100 nM,"O=c1c2c(-c3ccncc3)csc2cnn1CCc1ccc2sccc2n1 [Example 95, 3-(Pyridin-4-yl)-5-[2-(thieno[3,2-b]pyridin-5-yl)ethyl]thieno[2,3-d]pyridazin-4(5H)-one]"
15,< 100 nM,"O=c1c2c(-c3ccncc3)csc2cnn1CCc1cn2ccccc2n1 [Example 96, 5-[2-(Imidazo[1,2-a]pyridin-2-yl)ethyl]-3-(pyridin-4-yl)thieno[2,3-d]pyridazin-4(5H)-one]"
16,< 100 nM,"O=c1c2c(-c3ccncc3)csc2cnn1CCc1cn2ccc(F)cc2n1 [Example 97, 5-[2-(7-Fluoroimidazo[1,2-a]pyridin-2-yl)ethyl]-3-(pyridin-4-yl)thieno[2,3-d]pyridazin-4(5H)-one]"
17,< 100 nM,"O=c1c2c(-c3ccncc3)cccc2cnn1CCc1ccc2ccccc2n1 [Example 98, 8-(Pyridin-4-yl)-2-[2-(quinolin-2-yl)ethyl]phthalazin-1(2H)-one]"
18,200 to 500 nM,"Cc1ccc(-c2cccc3cnn(CCc4ccc5ccccc5n4)c(=O)c23)cc1 [Example 100, 8-(4-Methylphenyl)-2-[2-(quinolin-2-yl)ethyl]phthalazin-1(2H)-one]"
